Where two headings read alike, the source gives them in different places.
Key:
[1] = target: GAL4 DBD-CfEcR(DEF)/VP16AD-MmRXRE (Choristoneura fumiferana, UniProt O77240); assay: 13B3 Assay (CHO stable cell line, luciferase reporter); conditions: for Fold Induction, 13B3 Assay, 3.3 uM: 3.3 uM ligand; for Fold Induction, 13B3 Assay, 3.3 uM / Fold Induction, 13B3 Assay, 33 uM: RLU ligand treated / RLU DMSO treated cells; for Fold Induction, 13B3 Assay, 33 uM: 33 uM ligand; for 13B3 assay Rel Max FI: maximum fold induction at any concentration relative to that of GS-E ligand, CHO 13B3 cells; for fold induction at 33 µM: read-out: Fold Induction, 13B3 Assay, 33 uM
Excerpt: GAL4 DBD-CfEcR(DEF)/VP16AD-MmRXRE:
The wild-type D, E, and F domains from spruce budworm Choristoneura fumiferana EcR (“CfEcR-DEF”; SEQ ID NO: 1) were fused to a GALA DNA binding domain (“Gal4DBD1-147”; SEQ ID NO: 2) and placed under the control of the SV40e promoter of pM vector (PT3119-5, Clontech, Palo Alto, Calif.). The D and E domains from Mus Musculus RXR (“MmRXR-DE”; SEQ ID NO: 11) were fused to the transactivation domain from VP16 (“VP16AD”; SEQ ID NO: 6) and placed under the control of the SV40e promoter of the pVP16 vector (PT3127-5, Clontech, Palo Alto, Calif.).
CHO cells were transiently transfected with transcription cassettes for GAL4 DBD-CJEcR(DEF) and for VP16AD-MmRXRE controlled by SV40e promoters. Stably transfected cells were selected using Hygromycin. Individually isolated CHO cell clones were transiently transfected with a GALA RE-luciferase reporter (pFR-Luc, Stratagene, La Jolla, Calif.). The 13B3 clone was selected using Zeocin.
Cells were trypsinized and diluted to a concentration of 2.5×10^4 cells mL. 100 μL of cell suspension was placed in each well of a 96 well plate and incubated at 37° C. under 5% CO2 for 24 h. Ligand stock solutions were prepared in DMSO and diluted 300 fold for all treatments. Dose response testing consisted of 8 concentrations ranging from 33 μM to 0.01 μM.
(§1) Luciferase reporter gene expression was measured 48 h after cell treatment using Bright-Glo™ Luciferase Assay System from Promega (E2650). Luminescence was detected at room temperature using a Dynex MLX microtiter plate luminometer.
(§2) Each assay was conducted in two separate wells, and the two values were averaged. Fold inductions were calculated by dividing relative light units (“RLU”) in ligand treated cells with RLU in DMSO treated cells. EC50s were calculated from dose response data using a three-parameter logistic model.

[2] = target: T1, Bombyx mori EcR (VP16 fusion, CVBE switch construct) (Bombyx mori, UniProt P49881); assay: Z3 Assay (HEK-293 cells with CVBE and 6XEcRE LacZ, β-galactosidase reporter); conditions: for Fold Induction, Z3 Assay, 3.3 uM: 3.3 uM ligand; for Fold Induction, Z3 Assay, 3.3 uM / Fold Induction, Z3 Assay, 33 uM: ligand treated / DMSO treated cells; for Fold Induction, Z3 Assay, 33 uM: 33 uM ligand; for Z3 assay Rel Max FI: maximum fold induction at any concentration relative to that of GS-E ligand
T1 sequence (P49881 86-606): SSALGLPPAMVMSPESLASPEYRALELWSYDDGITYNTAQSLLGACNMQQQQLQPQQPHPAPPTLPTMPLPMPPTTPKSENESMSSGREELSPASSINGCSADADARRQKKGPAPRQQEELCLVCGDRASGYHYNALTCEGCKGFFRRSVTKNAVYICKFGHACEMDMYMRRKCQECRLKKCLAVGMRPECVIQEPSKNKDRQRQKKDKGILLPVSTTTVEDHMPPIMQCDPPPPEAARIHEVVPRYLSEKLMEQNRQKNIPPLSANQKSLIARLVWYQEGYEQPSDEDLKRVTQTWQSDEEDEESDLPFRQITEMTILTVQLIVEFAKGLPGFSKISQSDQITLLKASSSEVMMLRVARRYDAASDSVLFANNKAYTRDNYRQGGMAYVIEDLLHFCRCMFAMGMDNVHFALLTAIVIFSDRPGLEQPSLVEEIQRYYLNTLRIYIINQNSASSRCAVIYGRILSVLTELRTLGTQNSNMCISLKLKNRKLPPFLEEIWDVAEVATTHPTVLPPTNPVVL
T1 sequence (P19793 1-462 partner): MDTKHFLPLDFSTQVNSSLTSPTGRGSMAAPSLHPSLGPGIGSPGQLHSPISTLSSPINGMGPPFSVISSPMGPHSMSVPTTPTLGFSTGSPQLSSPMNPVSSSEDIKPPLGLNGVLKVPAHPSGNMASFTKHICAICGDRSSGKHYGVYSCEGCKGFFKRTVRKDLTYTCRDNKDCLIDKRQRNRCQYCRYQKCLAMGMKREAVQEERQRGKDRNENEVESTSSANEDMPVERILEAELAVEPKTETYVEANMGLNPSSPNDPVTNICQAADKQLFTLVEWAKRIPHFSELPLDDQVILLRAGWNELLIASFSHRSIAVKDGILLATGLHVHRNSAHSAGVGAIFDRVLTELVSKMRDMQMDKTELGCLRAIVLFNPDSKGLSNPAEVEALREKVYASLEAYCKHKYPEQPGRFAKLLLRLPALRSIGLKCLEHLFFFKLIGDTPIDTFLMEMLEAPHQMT
Excerpt: Dr. F. Gage provided a population of stably transformed cells containing CVBE and 6XEcRE as described in Suhr, S. T., Gil, E. B., Senut M. C., Gage, F. H. (1998) Proc. Natl. Acad. Sci. USA 95, 7999-804. Human 293 kidney cells, also referred to as HEK-293 cells, were sequentially infected with retroviral vectors encoding first the switch construct CVBE, and subsequently the reporter construct 6XEcRE Lac Z. The switch construct contained the coding sequence for amino acids 26-546 from Bombyx mori EcR (BE) (Iatrou) inserted in frame and downstream of the VP16 transactivation domain (VBE). A synthetic ATG start codon was placed under the control of cytomegalovirus (CVBE) immediate early promoter and flanked by long terminal repeats (LTR). The reporter construct contained six copies of the ecdysone response element (EcRE) binding site placed upstream of LacZ and flanked on both sides with LTR sequences (6XEcRE).
Dilution cloning was used to isolate individual clones. Clones were selected using 450 ug/mL G418 and 100 ng/mL puromycin. Individual clones were evaluated based on their response in the presence and absence of test ligands.
Human 293 kidney cells stably transformed with CVBE and 6XEcRE LacZ were maintained in Minimum Essential Medium (Mediates, 10-010-CV) containing 10% FBS (Life Technologies, 26140-087), […] G418 (Mediates, 30-234-CR), and […] (Sigma, P-7255), at 37° C. in an atmosphere containing 5% CO2 and were subculture when they reached 75% confluence.
Z3 cells were seeded into 96-well tissue culture plates at a concentration of 2.5×10^3 cells per well and incubated at 37° C. in 5% CO2 for twenty-four hours. Stock solutions of ligands were prepared in DMSO. Ligand stock solutions were diluted 100 fold in media and 50 μL of this diluted ligand solution ([…]) was added to cells. The final concentration of DMSO was maintained at 0.03% in both controls and treatments.
Reporter gene expression was evaluated 48 hours after treatment of cells, β-galactosidase activity was measured using Gal Screen™ bioluminescent reporter gene assay system from Tropix (GSY1000). Fold induction activities were calculated by dividing relative light units (“RLU”) in ligand treated cells with RLU in DMSO treated cells. Luminescence was detected at room temperature using a Dynex MLX microtiter plate luminometer.
Flanking both constructs are long terminal repeats, G418 and puromycin are selectable markers, CMV is the cytomegalovirus promoter, VBE is coding sequence for amino acids 26-546 from Bombyx mori EcR inserted downstream of the VP16 transactivation domain, 6×EcRE is six copies of the ecdysone response element, lacZ encodes for the reporter enzyme β-galactosidase.
as §2

[3] = target: GAL4 DBD (1-147)-CfEcR(DEF)/VP16AD-βRXREF-LmUSPEF (Choristoneura fumiferana, UniProt O77240); assay: cell-based
Excerpt: GAL4 DBD (1-147)-CfEcR(DEF)/VP16AD-βRXREF-LmUSPEF:
The wild-type D, E, and F domains from spruce budworm Choristoneura fumiferana EcR (“CfEcR-DEF”; SEQ ID NO: 1) were fused to a GAL4 DNA binding domain (“Gal4DBD1-147”; SEQ ID NO: 2) and placed under the control of a phosphoglycerate kinase promoter (“PGK”; SEQ ID NO: 3). Helices 1 through 8 of the EF domains from Homo sapiens RXRβ (“HsRXRβ-EF”; nucleotides 1-465 of SEQ ID NO: 4) and helices 9 through 12 of the EF domains of Locusta migratoria Ultraspiracle Protein (“LmUSP-EF”; nucleotides 403-630 of SEQ ID NO: 5) were fused to the transactivation domain from VP16 (“VP16AD”; SEQ ID NO: 6) and placed under the control of an elongation factor-1α promoter (“EF-1α”; SEQ ID NO: 7). Five consensus GAL4 response element binding sites (“5XGAL4RE”; comprising 5 copies of a GAL4RE comprising SEQ ID NO: 8) were fused to a synthetic TATA minimal promoter (SEQ ID NO: 9) and placed upstream of the luciferase reporter gene (SEQ ID NO: 10).
CHO cells were transiently transfected with transcription cassettes for GAL4 DBD (1-147) CJEcR(DEF) and for VP16AD βRXREF-LmUSPEF controlled by ubiquitously active cellular promoters (PGK and EF-la, respectively) on a single plasmid. Stably transfected cells were selected by Zeocin resistance. Individually isolated CHO cell clones were transiently transfected with a GAL4 RE-luciferase reporter (pFR Luc). 27-63 clone was selected using Hygromycin.
Cells were trypsinized and diluted to a concentration of 2.5×10^4 cells mL. 100 μL of cell suspension was placed in each well of a 96 well plate and incubated at 37° C. under 5% CO2 for 24 h. Ligand stock solutions were prepared in DMSO and diluted 300 fold for all treatments. Dose response testing consisted of 8 concentrations ranging from […] to 0.01 μM.
as §1, §2

[4] = read-out: 13B3 EC50, CHO 13B3 stable cell line, luciferase reporter, 48 h, average of two wells
[5] = read-out: Z3 assay EC50, HEK-293 Z3 cells, β-galactosidase reporter, average of two wells

Structure (SMILES) | Fold Induction, 13B3 Assay, 3.3 uM ([1]; average of two wells) | Fold Induction, 13B3 Assay, 33 uM ([1]; average of two wells) | 13B3 assay Rel Max FI [1] | EC50 [1, 4] | Fold Induction, Z3 Assay, 3.3 uM ([2]; average of two wells) | Fold Induction, Z3 Assay, 33 uM ([2]; average of two wells) | Z3 assay Rel Max FI ([2]; HEK-293 Z3 cells) | EC50 [2, 5] | EC50 [1] | fold induction at 3.3 µM ([1]; read-out: Fold Induction, 13B3 Assay, 3.3 uM) | fold induction at 33 µM [1] | EC50 [2] | fold induction at 3.3 µM ([2]; HEK293, read-out: Fold Induction, Z3 Assay, 3.3 uM) | fold induction at 33 µM ([2]; HEK293, read-out: Fold Induction, Z3 Assay, 33 uM) | Fold Induction, 27-63 Assay, 3.3 uM ([3]; 3.3 uM ligand, RLU ligand treated / RLU DMSO treated cells, average of two wells) | Fold Induction, 27-63 Assay, 33 uM ([3]; 33 uM ligand, RLU ligand treated / RLU DMSO treated cells, average of two wells) | 27-63 assay Rel Max FI ([3]; maximum fold induction at any concentration relative to that of GS-E ligand, CHO 27-63 cells) | EC50 ([3]; read-out: 27-63 assay EC50, CHO 27-63 stable cell line, luciferase reporter, average of two wells)
CCc1c(OC)cccc1C(=O)NN(C(=O)c1cccc(F)c1F)C(C)(C)C [RG-115627] | 1291 | 10058 | 0.854 | 921 nM | 378 | 362 | 0.840 | 813 nM |  |  |  |  |  |  |  |  |  | 
COc1cc(C(=O)N(NC(=O)c2ccc3c(c2C)OCCO3)C(C)(C)C)c([N+](=O)[O-])c(OC)c1C [RG-115609, 3,5-dimethoxy-4-methyl-2-nitrobenzoic acid N-t-butyl-N′-(5-methy-1benzo-1,4-dioxan-6-carbonyl)-hydrazide] | 558 | 4217 | 0.883 | 13800 nM | 90 | 383 | 0.625 | 1390 nM |  |  |  |  |  |  |  |  |  | 
COc1cccc(C(=O)NN(C(=O)c2cc(C)cc(C)c2)C(C)(C)C)c1COC(C)=O [RG-115225, 3,5-dimethyl-benzoic acid N-tert-butyl-N′-(2-acetoxymethyl-3-methoxy-benzoyl)-hydrazide] |  |  | 0.08 |  |  |  | 0.32 |  | 580 nM | 3 | 8 | > 50000 nM | 3 | 571 |  |  |  | 
COc1cccc(C(=O)NN(C(=O)c2cc(C)cc(C)c2)C(C)(C)C)c1I [RG-101528] | 259 | 3027 | 1.111 | 29300 nM | 748 | 1515 | 0.923 | 1050 nM |  |  |  |  |  |  |  |  |  | 
CCc1c(C(=O)NN(C(=O)c2ccc(F)cc2)C(C)(C)C)ccc2c1OCOC2 [RG-100574] |  |  |  |  |  | 389 |  | 1120 nM |  |  |  |  |  |  | 151 | 21 | 0.371 | 4000 nM
CCc1c(OC)cccc1C(=O)NN(C(=O)c1ccc2ncn(C(c3ccccc3)(c3ccccc3)c3ccccc3)c2c1)C(C)(C)C [RG-115718, 3-trityl-3H-benzoimidazole-5-carboxylic acid N-tert-butyl-N′-(2-ethyl-3-methoxy-benzoyl)-hydrazide] |  |  |  |  |  |  |  |  |  |  | 2 |  |  |  |  |  |  | 
